Measurements taken from US9309222B2, “Phenyl linked quinolinyl modulators of RORγt” (Janssen Pharmaceutica NV, priority 2012, dated 2016).
“And” between values parts separate entries of the source, which are not always exact repeats. Equal entries are not always repeated. Structures can show the parent of a compound that is named as a salt.

Legend:
human RORγt LBD = target: T1, human RORγt LBD (Homo sapiens, UniProt P51449); test: RORγt reporter assay (GAL4-RORγt LBD luciferase in HEK293T cells); type: cell-based; settings: for IC50: HEK293T cells, 24 hours compound treatment; for inhibition at 6 µM: HEK-293T, read-out: RORγt reporter Assay, % inhibition @ 6 μM, HEK293T cells, 6 μM compound
T1 construct: expressed in transfected cells
T1 sequence (P51449 258-518): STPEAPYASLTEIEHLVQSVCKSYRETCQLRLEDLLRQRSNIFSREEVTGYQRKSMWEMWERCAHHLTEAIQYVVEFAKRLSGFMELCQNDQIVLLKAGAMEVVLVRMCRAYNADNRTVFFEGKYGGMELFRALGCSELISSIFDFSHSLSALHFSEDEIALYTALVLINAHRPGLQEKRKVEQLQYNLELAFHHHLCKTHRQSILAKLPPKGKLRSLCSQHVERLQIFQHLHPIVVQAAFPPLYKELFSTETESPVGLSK
Outline: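 HEK293T cells transiently co-transfected with pBIND (GAL4 DBD fused to wild-type human RORγt LBD, plus SV40-driven renilla luciferase) and pGL4.31 GAL4-responsive firefly luciferase reporter. Plated in phenol-red-free DMEM with 5% lipid-reduced FCS and treated with compound for 24 h. Firefly/renilla luminescence ratio plotted against compound concentration.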

[1] = target: T2, human RORγt ligand binding domain (RORγt LBD) (Homo sapiens, UniProt P51449); test: RORγt ThermoFluor assay (thermal shift, ligand binding affinity); settings: estimated from concentration response of thermal shift
T2 construct: His-tag (N); TurboTEV protease cleavage site (ENLYFQG) (N); made in house; host or cells: E. coli (pHIS1, modified pET vector)
T2 sequence (P51449 with tags, fused parts or gaps): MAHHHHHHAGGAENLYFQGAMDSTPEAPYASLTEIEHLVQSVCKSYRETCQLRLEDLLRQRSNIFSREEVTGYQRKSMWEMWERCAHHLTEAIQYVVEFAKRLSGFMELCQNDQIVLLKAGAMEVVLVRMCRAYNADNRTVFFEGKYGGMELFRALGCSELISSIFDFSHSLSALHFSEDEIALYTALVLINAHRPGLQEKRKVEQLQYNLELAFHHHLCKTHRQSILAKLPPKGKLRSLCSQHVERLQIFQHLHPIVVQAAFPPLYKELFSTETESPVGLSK
Outline: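 Thermal shift of 0.065 mg/mL RORγt with 60 μM 1,8-ANS in 100 mM Hepes pH 7.0, 10 mM NaCl, 2.5 mM GSH, 0.002% Tween-20. Compounds in 1:2 series from 10 mM DMSO stock. Dye fluorescence (500 nm emission) tracked versus temperature; ΔTm used to derive KD.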

[2] = test system: IL-17 production by CD4 T cells; test: Human Th17 assay (IL-17 production by CD4 T cells under Th17 differentiation conditions); type: cell-based; settings: IL-17 in supernatant after 3 days
Experimental: The human Th17 assay tests the effect of RORγt modulatory compounds on IL-17 production by CD4 T cells under conditions which favor Th17 differentiation. Total CD4^+ T cells were isolated from the peripheral blood mononuclear cells (PBMC) of healthy donors using a CD4^+ T cell isolation kit II, following the manufacturer's instructions (Miltenyi Biotec). […] 50 μL of compound at titrated concentrations in DMSO were added into each well at final DMSO concentration at 0.2%. Cells were incubated for 1 hour, then 50 μL of Th17 cell differentiation medium was added to each well. The final concentrations of antibodies and cytokines (R&D Systems) in differentiation medium were: 3×10^6/mL anti-CD3/CD28 beads (prepared using human T cell activation/expansion kit, Miltenyi Biotec), 10 μg/mL anti-IL4, 10 μg/mL anti-IFNγ, 10 ng/mL IL113, 10 ng/mL IL23, 50 ng/mL IL6, 3 ng/mL TGFβ and 20 U/mL IL2. Cells were cultured at 37° C. and 5% CO2 for 3 days. Supernatants were collected and the accumulated IL-17 in culture was measured by using MULTI-SPOT® Cytokine Plate following manufacture's instruction (Meso Scale Discovery). The plate was read using Sector Imager 6000, and IL-17 concentration was extrapolated from the standard curve. The IC50s were determined by GraphPad.

Row | SMILES | IC50 (human RORγt LBD) | inhibition at 6 µM (human RORγt LBD) | Kd [1] | IC50 ([2]; Homo sapiens, CD4+ T, 72 h) | IC50 [2]
1 | Cn1cncc1C(O)(c1ccc(F)nc1)c1ccc2nc(Cl)c(-c3ccccc3)c(Cl)c2c1 (centres unmarked) [Example 12, (2,4-Dichloro-3-phenylquinolin-6-yl)(6-fluoropyridin-3-yl)(1-methyl-1H-imidazol-5-yl)methanol•TFA] | ~100 nM | 103% | 22 nM | 330 nM | 
2 | Cn1cncc1C(O)(c1ccc(Cl)nc1)c1ccc2nc(Cl)c(-c3ccccc3)c(Cl)c2c1 (centres unmarked) [Example 13] | 85 nM | 106% | 15 nM | 530 nM | 
3 | OC(c1ccc(Cl)cc1)(c1cccnc1)c1ccc2nc(Cl)c(-c3ccccc3)c(Cl)c2c1 (centres unmarked) [Example 17, (4-Chlorophenyl)(2,4-dichloro-3-phenylquinolin-6-yl)(pyridin-3-yl)methanol] | 270 nM | 102% | 210 nM | 940 nM | 
4 | Cn1cncc1C(O)(c1ccncc1)c1ccc2nc(N3CCOCC3)c(-c3ccccc3)c(Cl)c2c1 (centres unmarked) [Example 20, (4-Chloro-2-morpholin-4-yl-3-phenylquinolin-6-yl)(1-methyl-1H-imidazol-5-yl)pyridin-4-ylmethanol•TFA] | 330 nM | 104% | 130 nM | 520 nM | 
5 | OC(c1ccncc1)(c1ccncc1)c1ccc2nc(Cl)c(-c3ccccc3)c(Cl)c2c1 [Example 21, (2,4-Dichloro-3-phenylquinolin-6-yl)(dipyridin-4-yl)methanol•TFA] | 860 nM | 91% | 120 nM | ~900 nM | 
6 | OC(c1ccc(F)cc1)(c1cccnc1)c1ccc2nc(Cl)c(-c3ccccc3)c(Cl)c2c1 (centres unmarked) [Example 22, (2,4-Dichloro-3-phenylquinolin-6-yl)(4-fluorophenyl)pyridin-3-ylmethanol] | 220 nM | 104% | 75 nM | 440 nM | 
7 | OC(c1cccnc1)(c1cccnc1)c1ccc2nc(Cl)c(-c3ccccc3)c(Cl)c2c1 [Example 24, (2,4-Dichloro-3-phenylquinolin-6-yl)(dipyridin-3-yl)methanol•TFA] | 79 nM | 104% | 24 nM | 320 nM | ~200 nM
8 | OC(c1cccnc1)(c1cccc(Cl)c1)c1ccc2nc(Cl)c(-c3ccccc3)c(Cl)c2c1 (centres unmarked) [Example 25, (3-Chlorophenyl)(2,4-dichloro-3-phenylquinolin-6-yl)(pyridin-3-yl)methanol] | 94 nM and ~90 nM | 99% | 65 nM | 340 nM | 
9 | OC(c1cccnc1)(c1ccc2nc(Cl)c(-c3ccccc3)c(Cl)c2c1)c1ccccn1 (centres unmarked) [Example 26, (2,4-Dichloro-3-phenylquinolin-6-yl)(pyridin-2-yl)pyridin-3-ylmethanol•TFA] | 700 nM | 100% | 1300 nM | 2800 nM | 
10 | Oc1ccc(C(O)(c2cccnc2)c2ccc3nc(Cl)c(-c4ccccc4)c(Cl)c3c2)cc1 (centres unmarked) [Example 29, 4-[(2,4-Dichloro-3-phenylquinolin-6-yl)(hydroxy)pyridin-3-ylmethyl]phenol•HCl] | 260 nM | 95% | 180 nM | 2800 nM | 
11 | CCc1nc2ccc(C(O)(c3ccc(F)cc3)c3cccnc3)cc2c(Cl)c1-c1ccccc1 (centres unmarked) [Example 30, (4-Chloro-2-ethyl-3-phenylquinolin-6-yl)(4-fluorophenyl)pyridin-3-ylmethanol•TFA] | ~300 nM | 93% | 33 nM | ~1000 nM | 
12 | CN(C)c1nc2ccc(C(O)(c3ccc(Cl)cc3)c3cccnc3)cc2c(Cl)c1-c1ccccc1 (centres unmarked) [Example 32, [4-Chloro-2-(dimethylamino)-3-phenylquinolin-6-yl](4-chlorophenyl)pyridin-3-ylmethanol•TFA] | 94 nM | 97% | 330 nM | 860 nM | 
13 | CN(C)c1nc2ccc(C(O)(c3cccnc3)c3cncn3C)cc2c(Cl)c1-c1ccccc1 (centres unmarked) [Example 34, [4-Chloro-2-(dimethylamino)-3-phenylquinolin-6-yl](1-methyl-1H-imidazol-5-yl)pyridin-3-ylmethanol•TFA] | 47 nM and < 50 nM | 100% | 33 nM | 140 nM | 
14 | CN(C)c1c(-c2ccccc2)c(Cl)nc2ccc(C(O)(c3cccnc3)c3cncn3C)cc12 (centres unmarked) [Example 35, [2-Chloro-4-(dimethylamino)-3-phenylquinolin-6-yl](1-methyl-1H-imidazol-5-yl)pyridin-3-ylmethanol•TFA] | 340 nM | 97% | 330 nM | 770 nM | 
15 | CN(C)c1nc2ccc(C(O)(c3ccccn3)c3cncn3C)cc2c(Cl)c1-c1ccccc1 (centres unmarked) [Example 36, [4-Chloro-2-(dimethylamino)-3-phenylquinolin-6-yl](1-methyl-1H-imidazol-5-yl)pyridin-2-ylmethanol•TFA] | 290 nM | 98% | 2000 nM | 1600 nM | 
16 | CN(C)c1nc2ccc(C(O)(c3ccncc3)c3ccncc3)cc2c(Cl)c1-c1ccccc1 [Example 37, [4-Chloro-2-(dimethylamino)-3-phenylquinolin-6-yl](dipyridin-4-yl)methanol•TFA] | 190 nM | 91% | 200 nM | ~1000 nM | 
17 | CN(C)c1nc2ccc(C(O)(c3ccc(F)cc3)c3cccnc3)cc2c(Cl)c1-c1ccccc1 (centres unmarked) [Example 38, [4-Chloro-2-(dimethylamino)-3-phenylquinolin-6-yl](4-fluorophenyl)pyridin-3-ylmethanol•TFA] | 110 nM and < 50 nM | 98% | 37 nM | 270 nM | 
18 | CN(C)c1nc2ccc(C(O)(c3cccnc3)c3cccnc3)cc2c(Cl)c1-c1ccccc1 [Example 40, [4-Chloro-2-(dimethylamino)-3-phenylquinolin-6-yl](dipyridin-3-yl)methanol•TFA] | 47 nM and < 50 nM | 100% | 18 nM | 56 nM | 
19 | CN(C)c1nc2ccc(C(O)(c3cccnc3)c3cccc(Cl)c3)cc2c(Cl)c1-c1ccccc1 (centres unmarked) [Example 41, [4-Chloro-2-(dimethylamino)-3-phenylquinolin-6-yl](3-chlorophenyl)pyridin-3-ylmethanol•TFA] | 110 nM and ~100 nM | 98% | 23 nM | 200 nM | 
20 | CN(C)c1nc2ccc(C(O)(c3cccnc3)c3ccccc3Cl)cc2c(Cl)c1-c1ccccc1 (centres unmarked) [Example 44, [4-Chloro-2-(dimethylamino)-3-phenylquinolin-6-yl](2-chlorophenyl)pyridin-3-ylmethanol•TFA] | 170 nM | 97% | 330 nM | 550 nM | 
21 | CCN(C)c1nc2ccc(C(O)(c3ccncc3)c3cncn3C)cc2c(Cl)c1-c1ccccc1 (centres unmarked) [Example 50, {4-Chloro-2-[ethyl(methyl)amino]-3-phenylquinolin-6-yl}(1-methyl-1H-imidazol-5-yl)pyridin-4-ylmethanol•TFA] | 7 nM and ~9 nM and < 50 nM | 105% | 5 nM | 36 nM | 
22 | COc1cccc(C(O)(c2cccnc2)c2ccc3nc(Cl)c(-c4ccccc4)c(Cl)c3c2)c1 (centres unmarked) [Example 54, (2,4-Dichloro-3-phenylquinolin-6-yl)(3-methoxyphenyl)pyridin-3-ylmethanol] | 150 nM | 97% | 39 nM | 360 nM | 
